The text below walks through data of paper PMC3628991, “Synthesis and evaluation of cell-permeable biotinylated PU-H71 derivatives as tumor Hsp90 probes” (Beilstein Journal of Organic Chemistry, 2013).

The test system of assay [1] is tumor cell Hsp90 complexes (SKBr3 human breast cancer lysate). The assay can be described thus: Hsp90 fluorescence polarization competition assay (GM-cy3B displacement) in SKBr3 cancer-cell lysate. In kind it is binding. As to conditions: read-out: Affinity for Hsp90 (FP). The source says: The fraction of tracer bound to Hsp90 was correlated to the mP value and plotted against values of competitor concentrations. The inhibitor concentration at which 50% of bound GM was displaced was obtained by fitting the data.
A general note: Fluorescence polarisation rises when a labelled molecule tumbles more slowly, as on binding a larger partner.

The target of a further assay is Grp94 (Homo sapiens, UniProt P14625). As to conditions: ref Chiosis G, personal communication; cited from earlier work.
Another assay concerns K562 cells. As to the kind of experiment: Growth inhibition assay (Alamar Blue). In kind it is cell-based. As to conditions: Homo sapiens, K562, 72 h, read-out: IC50 Growth inhibition. The source says:
Having shown that each of the prepared biotinylated molecules retained good affinity for Hsp90, we next evaluated these compounds in two functional read-outs that together measure that the probe has entered a live cancer cell and once inside the cell, has bound to a substantial fraction of oncogenic Hsp90 molecules. Specifically, K562 is a human leukemia cell line dependent on Hsp90 for survival. Thus, in such cells, occupancy of Hsp90’s regulatory pocket by small molecules results in inhibition of its cancer-sheltering properties, leading to cell-growth inhibition associated with degradation of Hsp90-chaperoned onco-proteins. These, such as is the case for Raf-1 in K562 cells, become ubiquitinated and targeted for proteasomal degradation leading to a decrease in their steady-state levels (Figure 2a, Raf-1).
Growth inhibition assay. The effect of compounds on cell growth was evaluated with the Alamar Blue assay. In summary, K562 cells were plated at 20,000 cells/well on Costar 96-well plates. Treatment with the probes added at the indicated concentrations in triplicate wells was performed on the subsequent day and lasted for 72 h. The Alamar Blue reagent resazurin (440 μM stock) was added at the end of the treatment to result in a final concentration of 50 μM. Plates were read 6 h later by using the Analyst GT instrument (Fluorescence intensity mode, excitation 530 nm, emission 580 nm, with 560 nm dichroic mirror). Results were analyzed in SoftMax Pro. The percentage of cell growth inhibition was calculated by comparing fluorescence readings obtained from treated versus control cells, accounting for the initial cell population (time zero). The IC50 was calculated as the drug concentration that inhibits cell growth by 50%.

Sequence of Grp94 (P14625 22-803, species assumed): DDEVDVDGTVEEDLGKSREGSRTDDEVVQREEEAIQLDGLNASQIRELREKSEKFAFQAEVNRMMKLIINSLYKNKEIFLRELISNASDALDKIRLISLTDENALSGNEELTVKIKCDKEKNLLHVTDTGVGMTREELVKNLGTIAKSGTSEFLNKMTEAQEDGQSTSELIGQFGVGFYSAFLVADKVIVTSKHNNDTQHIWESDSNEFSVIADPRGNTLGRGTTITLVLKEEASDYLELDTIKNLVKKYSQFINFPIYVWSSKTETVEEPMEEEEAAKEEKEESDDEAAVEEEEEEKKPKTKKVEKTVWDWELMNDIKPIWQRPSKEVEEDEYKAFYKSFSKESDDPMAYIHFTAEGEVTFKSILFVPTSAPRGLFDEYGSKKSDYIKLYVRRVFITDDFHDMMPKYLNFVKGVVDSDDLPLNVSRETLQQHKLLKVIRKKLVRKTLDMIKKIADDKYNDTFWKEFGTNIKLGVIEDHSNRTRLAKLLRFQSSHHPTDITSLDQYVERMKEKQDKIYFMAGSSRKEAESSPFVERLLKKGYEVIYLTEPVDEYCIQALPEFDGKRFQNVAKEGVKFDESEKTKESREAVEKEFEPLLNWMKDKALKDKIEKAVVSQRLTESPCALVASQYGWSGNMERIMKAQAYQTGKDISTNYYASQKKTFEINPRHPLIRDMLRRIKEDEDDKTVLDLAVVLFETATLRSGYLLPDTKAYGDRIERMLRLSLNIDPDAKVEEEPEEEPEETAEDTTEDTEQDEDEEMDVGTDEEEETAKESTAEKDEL

As to `CC(C)NCCCn1c(Sc2cc3c(cc2I)OCO3)nc2c(N)ncnc21` [1a, PU-H71], the EC50 in assay [1] is 24.5 nM. Further, at Grp94, the “Binding to cytosolic and ER Hsp90 paralogues” value was “binds equally well to the cytosolic and the ER paralogues”. Also, the IC50 (usually the concentration needed to halve the response being measured) with K562 cells came out at 80 nM.
